Columns and labels:
Aβ1-42 peptide = Aβ1-42 peptide (Homo sapiens, UniProt P05067); assay: Thioflavin T (ThT) fluorescence assay of Aβ1-42 aggregation (SensoLyte kit); format: biochemical; conditions: Aβ1-42 35 μM, minimum of five concentrations, read-out: IC50, inhibition of Aβ aggregation (anti-amyloidogenic activity)
Description: All newly synthesized compounds were screened for their anti-amyloidogenic activity on Aβ1-42 peptides, using Phenol Red as the internal standard—all at 100 μM. […] To obtain the IC50 values (shown in FIGS. 4A-4D), all compounds were tested at a minimum of five different concentrations.
Samples of ThT (final concentration of 200 μM) and Aβ1-42 peptide (final concentration of 35 μM) were incubated at 37° C. in a black clear bottom 96-well plate. The ThT fluorescence intensity of each sample was immediately measured every 5 min for 120 min, with 440/485 nm excitation/emission filters and with 15 sec shaking between reads to facilitate aggregation. An inhibitor control containing Aβ1-42 and a supplied aggregation inhibitor (Phenol Red), at a final concentration of 100 μM. The positive control contained Aβ1-42 without an inhibitor. […] All the wells were brought to 100 μL as a final volume.

[1] = test system: Drosophila melanogaster UAS-Aβ 1-42/nSyb-Gal4; assay: Forced climbing assay in transgenic flies overexpressing Aβ; format: in vivo
Excerpt: To produce the transgenic Drosophila line of interest, UAS-Aβ42 1-42 female virgins were crossed with nSyb-Gal4 males. UAS-Aβ42 1-42 has a TM3, Sb balancer on the third chromosome, resulting in the mutant Sb gene, indicative of stubble bristles as a dominant marker. When crossed with the driver line, such as nSyb-Gal4, the transgenic line will either be UAS-Aβ42 1-42/nSyb-Gal4 or nSyb-Gal4/TM3, Sb. […] All offspring with the inherited balanced nSyb-Gal4TM3, Sb were negatively selected. Once enough F1 progeny of the transgenic line of interest were available, testing of the compounds was carried out. The extended chalcones of interest were dissolved in DMSO to a concentration of 5 mg/mL. […] These three concentrations were then introduced to each respective group. […] A forced climbing assay was conducted on the transgenic flies exposed to the extended chalcone compounds. […] The climbing assay was conducted five times a day, beginning on the seventh day after the flies were exposed to the compounds. Vials were marked with top, middle, and bottom sections, separated by one inch.

Aβ42 = assay: Human Aβ42 ELISA on heads of treated transgenic flies; format: in vivo; conditions: any concentration fed (1, 10, 100 mcg/mL)
Description: To perform the ELISA, the samples were first thawed on ice. A protease inhibitor cocktail with AEBSF (a serine protease inhibitor) was added to each sample, with a final concentration of 1 mM, and were then centrifuged to remove the large particulate matter. After centrifugation, samples were diluted with Standard Diluent Buffer at a 1:50 ratio to ensure sample concentrations would be within the range of the standard curve. […] After 30 min, the solution was thoroughly aspirated, and the wells were washed four times with Ix Wash Buffer. Stabilizing Chromogen (100 mcL) was added to each well and the plate was incubated in the dark. After 30 min, 100 mcL of the Stop Solution was added to every well and the plate was read immediately at an absorbance of 450 nm.
Absorbance measurements for each sample and control were averaged, and from the calibration curve the corresponding level of AB was determined. Data were analyzed using a one-way ANOVA. […] Thus, the physiological benefit observed when the flies were fed either Compound 25, 33, or 34 at varying concentrations, was most likely a result of a decrease in brain plaque burden.

SH-SY5Y cells = assay: MTT cell viability assay (neurotoxicity and neuroprotection); conditions: 48 h; for decrease in cell viability, compound co-administered with Aβ42: compound at IC50 concentration + Aβ42 20 μM, Aβ42 alone […]%; for cytotoxicity / neurotoxicity of compound alone: compound at its IC50 concentration
Description: To test neurotoxicity and neuroprotective effects of the compounds, a 3-(4,5-dimethylthiazol-2-yl)-2,5-diphenyltetrazolium bromide (MTT) assay was performed using compounds 25, 33, and 34 as described [8].
SH-SY5Y cells (CRL-2266, ATCC, Manassas, VA) were maintained in SH-SY5Y cells (CRL-2266, ATCC, Manassas, VA, USA) were maintained in Dulbecco's Modified Eagle's Medium and Ham's F-12 Medium (DMEM: F12) supplemented with 50 mL fetal bovine serum (10%) and incubated at 37° C., 5% CO2, and 90% humidity. For the MTT assay, cells were sub-cultured using trypsin-ethylenediaminetetraacetic acid (EDTA) (0.25%) solution into clear 96-well plates and allowed to adhere for 24 h. […] All groups were incubated for 48 h.
The MTT assay (Ab211091, Abcam, Waltham, MA, USA) was used to measure cell viability with metabolically active cells reducing the MTT reagent into insoluble formazan. Following the removal of the treatment media, 50 μL of serum-free media and 50 riL of MTT Reagent was added to each well. The plate was then incubated at 37° C. for 3 h. After incubation, 150 μL of MTT Solvent was added into each well. The plate was then wrapped in foil and placed on an orbital plate shaker for 15 min. The absorbance was read at 590 nm.

[2] = 1 mcg/mL fly food, control 4.33%
[3] = 1 mcg/mL fly food, control approximately 95%

Chain of Aβ1-42 peptide (P05067 672-713 limits assumed): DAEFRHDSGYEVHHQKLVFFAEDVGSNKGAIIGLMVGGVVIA

Row | Compound | IC50 (Aβ1-42 peptide) [nM] | percentage of flies in middle section after 10 s [1, 2] [%] | percentage of flies in bottom section after 10 s [1, 3] [%] | percentage climbing compared to control, bottom, 95% CI ([1]; 1 mcg/mL, FIG. 8) | percentage climbing compared to control, middle, 95% CI ([1]; 1 mcg/mL, FIG. 8) | change in levels of Aβ in fly heads (ELISA) (Aβ42) | decrease in cell viability, compound co-administered with Aβ42 (SH-SY5Y cells) [%] | cytotoxicity / neurotoxicity of compound alone (SH-SY5Y cells) | percentage of flies in bottom section after 10 s ([1]; 10 mcg/mL fly food) [%] | percentage of flies in middle section after 10 s ([1]; 10 mcg/mL fly food) [%] | percentage climbing compared to control, middle, 95% CI ([1]; 10 mcg/mL, FIG. 8) | further results
1 | CN(C)c1ccc(C=CC=CC(=O)c2ccc(Cl)cc2)cc1 [Compound 3] | 2400 | – | – | – | – | – | – | – | – | – | – | –
2 | COc1ccc(C(=O)/C=C/C=C/c2ccc(N(C)C)cc2)cc1 [Compound 15, (2E,4E)-5-(4-(dimethylamino)phenyl)-1-(4-methoxyphenyl)penta-2,4-dien-1-one] | 3200 | – | – | – | – | – | – | – | – | – | – | –
3 | CSc1ccc(C(=O)/C=C/C=C/c2ccc(N(C)C)cc2)cc1 [Compound 18, (2E,4E)-5-(4-(dimethylamino)phenyl)-1-(4-(methylthio)phenyl)penta-2,4-dien-1-one] | 1500 | – | – | – | – | – | – | – | – | – | – | –
4 | CN(C)c1ccc(/C=C/C=C/C(=O)c2cc(Cl)cc(Cl)c2)cc1 [Compound 25, (2E,4E)-1-(3,5-dichlorophenyl)-5-(4-(dimethylamino)phenyl)penta-2,4-dien-1-one] | 910 | 15.56 | 82.15 | 1.543-24.82 | −18.97-−3.487 | no statistically significant change | 52 | no cytotoxicity | – | – | – | –
5 | O=C(/C=C/C=C/c1ccc(N2CCCCC2)cc1)c1ccc(Cl)cc1 [Compound 33, (2E,4E)-1-(4-chlorophenyl)-5-(4-(piperidin-1-yl)phenyl)penta-2,4-dien-1-one] | 1100 | 26.00 | 66.00 | 18.63-40.04 | −29.70-−13.63 | no statistically significant change | 52 | no cytotoxicity | 74.00 | 22.33 | −26.04-−9.964 | percentage of flies in top section after 10 s ([1]; 1 mcg/mL fly food, control 0.33%): 8.00%; percentage climbing compared to control, top, 95% CI ([1]; 1 mcg/mL, FIG. 8): −12.8-−2.516; percentage climbing compared to control, bottom, 95% CI ([1]; 10 mcg/mL, FIG. 8): 10.63-32.04
6 | (2E,4E)-1-(4-chlorophenyl)-5-(4-(piperidin-1-yl)phenyl)penta-2,4-dien-1-one [Compound 34] | 620 | – | – | – | – | no statistically significant change | 60 | no cytotoxicity | 82.50 | 15.00 | −18.78-−2.558 | percentage of flies in bottom section after 10 s ([1]; 100 mcg/mL fly food): 81.26%; percentage of flies in middle section after 10 s ([1]; 100 mcg/mL fly food): 14.90%; percentage climbing compared to control, bottom, 95% CI ([1]; 100 mcg/mL, FIG. 8): 3.395-24.75; percentage climbing compared to control, middle, 95% CI ([1]; 100 mcg/mL, FIG. 8): −18.67-−2.463

Source: US20250250218A1, “Anti-Amyloidogenic Curcumin Analogues” (MCPHS University, priority 2024, published 2025)
